Test results from patent publication US20250179027A1, “CYCLOALKYL OR HETEROCYCLYL SUBSTITUTED HETEROARYL COMPOUND, AND COMPOSITION AND USE THEREOF” (Shenzhen TargetRx, Inc., priority 2022, published 2025).

Tests used:
[1] = target: T1, BTK C481S kinase (Homo sapiens, UniProt Q06187, C481S); assay: HTRF kinase activity inhibition assay, BTK C481S; format: biochemical; details: HTRF TK kit
T1 construct: purchased Carna 08-547
From the text: (§1) In this assay, the HTRF TK Kit (Catalog No. 62TKOPEC) provided by Cisbio was used to detect the inhibitory activity of compounds on BTK kinase and BTK C481S kinase and the selectivity of compounds relative to EGFR, ITK and TEC kinases.
(§2) Reagents and consumables: BTK kinase (Invitrogen, Catalog No. PV3587), BTK C481S (Carna, Product No. 08-547), ITK (Carna, Product No. 08-181), EGFR (Carna, Product No. 08-115), TEC (Carna, Product No. 08-182), HTRF-TK kit (Cisbio, Product No. 62TKOPEC), MgCl2 (Sigma, Product No. M1028), MnCl2 (Sigma, Product No. M1787), DTT (Sigma, Product No. D0632), ATP (Sigma, Product No. A7699-1 g), DMSO (Sigma, Product No. D2650), 384-well plate (PE, Product No. 6008280).
(§3) The entire operation steps were carried out on ice, and the total reaction volume was 10 μL. The compound (4 μL), substrate and ATP (4 μL), kinase (2 μL) were added in sequence to a 384-well plate, and shaked for 30 seconds. After an appropriate time at room temperature, the detection reagent was added. After 1 hour at room temperature, the plate was detected with a microplate reader. The specific steps were as follows: • a) 1× kinase buffer solution required for kinase detection was calculated according to the amount of the detection compound, and prepared as needed; • b) compounds with 2.5×working concentration were prepared, the 100 times gradient concentration solution of compounds was diluted by 4 μL to the desired concentration, mixed well, and added to each well at 4 μL per well; • c) 5×working concentration of substrate and ATP were prepared, mixed in a ratio of 1:1 before adding to a 384-well plate, and added to each well at 4 μL per well; • d) 5×working concentration of kinase was prepared, and 2 μL was added to each well; • e) the plate was shaked on a microplate oscillator for 30 seconds, sealed with a sealing membrane, and reacted at room temperature for an appropriate time; • f) 4×working concentrations of streptavidin XL-665 and TK antibody-cryptate compound were prepared, mixed in a ratio of 1:1 before adding to a 384-well plate, and added to each well at 10 μL per well; • g) the plate was read after reacting at room temperature for 1 hour; • h) the wells with only substrate, ATP and 1% DMSO added but no kinase were blank control wells, and the wells with only substrate, ATP, 1% DMSO and kinase were positive control wells.
(§4) Readings: The values of 620 nm (cryptate) and 665 nm (XL665) were read with a BioTek Synerg Neo2 microplate reader, the ratio of 665/620 per well was calculated, and the data were exported. Data analysis: IC50 was calculated using GraphPad Prism 7.0 software. The following nonlinear fitting formula was used to obtain the IC50 (half inhibitory concentration) of compounds:
(§5) [formula] • X: Compound concentration log value • Y: Inhibition rate (% inhibition)
(§6) The kinase inhibition rate (% inhibition rate) was calculated as: […]

[2] = target: T2, TEC (Homo sapiens, UniProt P42680); assay: HTRF kinase activity inhibition assay, TEC; format: biochemical; details: HTRF TK kit
T2 construct: purchased Carna 08-182
T2 sequence (P42680 1-631): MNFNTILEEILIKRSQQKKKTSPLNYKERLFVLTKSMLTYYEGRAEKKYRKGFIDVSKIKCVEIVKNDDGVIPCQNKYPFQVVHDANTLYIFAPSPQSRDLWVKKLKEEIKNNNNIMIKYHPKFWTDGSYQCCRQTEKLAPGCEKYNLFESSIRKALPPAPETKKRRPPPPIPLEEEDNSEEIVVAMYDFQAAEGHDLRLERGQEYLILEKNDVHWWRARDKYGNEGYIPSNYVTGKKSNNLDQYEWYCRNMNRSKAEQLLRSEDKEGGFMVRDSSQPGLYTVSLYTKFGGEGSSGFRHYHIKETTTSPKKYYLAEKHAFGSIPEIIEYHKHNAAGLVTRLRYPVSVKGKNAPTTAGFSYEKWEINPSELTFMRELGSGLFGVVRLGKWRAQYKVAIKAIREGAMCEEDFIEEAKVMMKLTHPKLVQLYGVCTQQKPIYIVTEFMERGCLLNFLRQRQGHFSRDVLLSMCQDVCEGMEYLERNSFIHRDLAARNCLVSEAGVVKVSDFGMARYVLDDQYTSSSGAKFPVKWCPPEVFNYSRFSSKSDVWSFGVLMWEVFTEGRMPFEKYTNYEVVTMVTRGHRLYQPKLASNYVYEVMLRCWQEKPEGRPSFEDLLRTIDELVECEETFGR
From the text: as §1, §2, §3, §4, §5, §6

[3] = target: T3, phosphorylated BTK Y223 in NIH/3T3 BTK C481S cells (Homo sapiens, UniProt Q06187, C481S); assay: Phosphor-BTK(Y223) assay, NIH/3T3 BTK C481S cells; format: cell-based; details: phosphorylated BTK Y223, NIH/3T3 BTK C481S cells; read-out: NIH/3T3 BTK-C481S pBTK IC50
T3 construct: expressed in transfected cells; host or cells: NIH/3T3 (mouse fibroblasts) engineered to express BTK C481S
Description: The purpose of this assay is to simply, quickly and directly detect the endogenous level of BTK in cells. The specific assay steps are as follows: Day 1: NIH/3T3 BTK WT cells (7.5 k/well) and NIH/3T3 BTK C481S cells (10 k/well) were plated in 96-well plates, respectively, and cultured overnight at 37° C. and 5% CO2.
• 1. A 3-fold final concentration gradient dilution of the compound was prepared, and 50 μL was added to 100 μL of cell culture; 0.5% DMSO was used as a positive control for cell growth. • 2. The plate was incubated at 37° C., 5% CO2 for 0.5 h. • 3. Na3VO4 with a final concentration of 1 mM was added, and incubated at 37° C. and 5% CO2 for 2 hours. • 4. During the incubation, the following reagents were prepared: 1× added lysis buffer: 3 vol ddH2O+1 vol 4× lysis buffer+100× blocking reagent. p-BTK (Y223) cryptate-antibody and p-BTK (Y223) d2-antibody working solutions: 1 volume of each cryopreserved antibody (stored at −20° C.) was added to 19 times volumes of assay buffer (stored at 4° C.). • 5. After the incubation, the medium was removed and 50 μL of 1× added lysis buffer was added; The mixture was centrifuged at 500 rpm for 30 min at room temperature. • 6. The lysate was mixed well and 16 μL was transferred to a 384-well plate; 1× added lysis buffer was used as a blank control. • 7. 4 μL of pre-mixed working solutions of the two antibodies (cryptate Ab:d2 Ab=1:1) were added and the plate was sealed. • 8. The plate was incubated overnight at room temperature.
Biotek cytation3.0 microplate reader was used to read the plate at 665 nm and 620 nm, and the ratio of 665/620 nm per well was calculated.
IC50 was calculated using GraphPad Prism 7.0 software.
The following nonlinear fitting formula was used to obtain the phosphorylated BTK Y223 IC50 (half phosphorylation inhibitory concentration) of the compounds:
as §5
The formula for calculating cell phosphorylation inhibition rate (% inhibition rate) was: […]

T3 sequence (Q06187 whole entry C481S): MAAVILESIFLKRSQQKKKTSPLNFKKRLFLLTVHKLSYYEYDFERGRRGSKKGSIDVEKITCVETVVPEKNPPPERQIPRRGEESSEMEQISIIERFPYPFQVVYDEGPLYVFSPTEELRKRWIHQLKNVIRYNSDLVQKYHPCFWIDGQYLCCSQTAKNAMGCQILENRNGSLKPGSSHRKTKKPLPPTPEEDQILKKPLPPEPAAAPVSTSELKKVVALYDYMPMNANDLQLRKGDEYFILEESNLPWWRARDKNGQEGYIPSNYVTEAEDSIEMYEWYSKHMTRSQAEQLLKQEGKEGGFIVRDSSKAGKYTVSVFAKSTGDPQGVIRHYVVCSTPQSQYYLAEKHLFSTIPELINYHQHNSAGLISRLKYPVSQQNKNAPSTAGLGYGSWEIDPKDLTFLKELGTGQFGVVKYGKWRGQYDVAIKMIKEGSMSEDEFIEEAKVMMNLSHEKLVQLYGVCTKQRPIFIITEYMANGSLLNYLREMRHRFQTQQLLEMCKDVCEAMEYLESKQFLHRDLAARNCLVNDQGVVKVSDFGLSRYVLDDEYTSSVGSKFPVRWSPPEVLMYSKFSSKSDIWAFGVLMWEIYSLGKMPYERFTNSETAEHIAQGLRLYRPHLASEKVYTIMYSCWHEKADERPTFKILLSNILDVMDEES
T1 sequence (Q06187 whole entry C481S): as above

For COc1ccc(F)cc1C(=O)NCc1ccc(-c2nn(C3CCCC(O)C3)c3ncnc(N)c23)cc1 (single isomer, unassigned) [Example 7], the IC50 [1] was ≤ 10 nM, the IC50 [2] was 100 to 1000 nM and the IC50 [3] was 25 to 50 nM.
In the case of COc1ccc(F)cc1C(=O)NCc1ccc(-c2cc(C3CCC(CO)OC3)n3ncnc(N)c23)cc1 (single isomer, unassigned) [Example 60, N-(4-(4-amino-7-(6-(hydroxymethyl)tetrahydro-2H-pyran-3-yl)pyrrolo[2,1-f][1,2,4]triazin-5-yl)benzyl)-5-fluoro-2-methoxybenzamide], the IC50 [1] is reported as ≤ 10 nM, the IC50 [2] is reported as 100 to 1000 nM and the IC50 [3] is reported as ≤ 25 nM.
COc1ccc(F)cc1C(=O)NCc1ccc(-c2nc(C3CCCC(O)C3)n3ccnc(N)c23)cc1 (stereo not drawn) [Example 20, N-(4-(8-amino-3-(3-hydroxycyclohexanyl)imidazo[1,5-a]pyrazin-1-yl)benzyl)-5-fluoro-2-methoxybenzamide] was tested, and the IC50 [1] was 10 to 50 nM, the IC50 [2] was 100 to 1000 nM and the IC50 [3] was ≤ 25 nM.
In the case of COc1ccc(F)cc1C(=O)NCc1ccc(-c2nn(C3CCCC(O)C3)c3ncnc(N)c23)cc1 (single isomer, unassigned) [Example 5], the IC50 [1] is reported as ≤ 10 nM, the IC50 [2] is reported as 100 to 1000 nM and the IC50 [3] is reported as ≤ 25 nM.
For COc1ccc(F)cc1C(=O)NCc1ccc(-c2nn(C3CCCC(O)C3)c3ncnc(N)c23)cc1 (single isomer, unassigned) [Example 8], the IC50 [1] was 10 to 50 nM, the IC50 [2] was 1000 to 10000 nM and the IC50 [3] was 50 to 100 nM.
COc1ccc(F)cc1C(=O)NCc1ccc(-c2nn([C@H]3CC[C@H](CO)CC3)c3ncnc(N)c23)cc1 [Example 56, trans-N-(4-(4-amino-1-((1R,4R)-4-(hydroxymethyl)cyclohexyl)-1H-pyrazolo[3,4-d]pyrimidin-3-yl)benzyl)-5-fluoro-2-methoxybenzamide] was tested, and the IC50 [1] was ≤ 10 nM, the IC50 [2] was 100 to 1000 nM and the IC50 [3] was ≤ 25 nM.
In the case of COc1ccc(F)cc1C(=O)NCc1ccc(-c2nn([C@H]3CC[C@@H](O)CC3)c3ncnc(N)c23)cc1 [Example 30, N-(4-(4-amino-1-((1S,4S)-4-hydroxycyclohexyl)-1H-pyrazolo[3,4-d]pyrimidin-3-yl)benzyl)-5-fluoro-2-methoxybenzamide], the IC50 [1] is reported as ≤ 10 nM, the IC50 [2] is reported as 100 to 1000 nM and the IC50 [3] is reported as ≤ 25 nM.
For COc1ccc(F)cc1C(=O)NCc1ccc(-c2nn(C3CCCC(O)C3)c3ncnc(N)c23)cc1 (single isomer, unassigned) [Example 6], the IC50 [1] was ≤ 10 nM, the IC50 [2] was 100 to 1000 nM and the IC50 [3] was ≤ 25 nM.
For COc1ccc(F)cc1C(=O)NCc1ccc(-c2nn([C@H]3CC[C@@H](CO)CC3)c3ncnc(N)c23)cc1 [Example 55, cis-N-(4-(4-amino-1-((1S,4S)-4-(hydroxymethyl)cyclohexyl)-1H-pyrazolo[3,4-d]pyrimidin-3-yl)benzyl)-5-fluoro-2-methoxybenzamide], the IC50 [1] was ≤ 10 nM, the IC50 [2] was 100 to 1000 nM and the IC50 [3] was ≤ 25 nM.
COc1ccc(F)cc1C(=O)NCc1ccc(-c2nn(C3CCC(O)C3)c3ncnc(N)c23)cc1 (single isomer, unassigned) [Example 31, N-(4-(4-amino-1-(3-hydroxycyclopentanyl)-1H-pyrazolo[3,4-d]pyrimidin-3-yl)benzyl)-5-fluoro-2-methoxybenzamide] was tested, and the IC50 [1] was ≤ 10 nM, the IC50 [2] was 100 to 1000 nM and the IC50 [3] was ≤ 25 nM.
In the case of COc1ccc(F)cc1C(=O)NCc1ccc(-c2cc(C3CCC(CO)OC3)n3ncnc(N)c23)cc1 (single isomer, unassigned) [Example 59, N-(4-(4-amino-7-(6-(hydroxymethyl)tetrahydro-2H-pyran-3-yl)pyrrolo[2,1-f][1,2,4]triazin-5-yl)benzyl)-5-fluoro-2-methoxybenzamide], the IC50 [1] is reported as 10 to 50 nM, the IC50 [2] is reported as 1000 to 10000 nM and the IC50 [3] is reported as 50 to 100 nM.
For COc1ccc(F)cc1C(=O)NCc1ccc(-c2nn(C3CCC(CO)OC3)c3ncnc(N)c23)cc1 (single isomer, unassigned) [Example 18, N-(4-(4-amino-1-(6-(hydroxymethyl)tetrahydro-2H-pyran-3-yl)-1H-pyrazolo[3,4-d]pyrimidin-3-yl)benzyl)-5-fluoro-2-methoxybenzamide], the IC50 [1] was ≤ 10 nM, the IC50 [2] was 100 to 1000 nM and the IC50 [3] was ≤ 25 nM.
For COc1ccc(F)cc1C(=O)NCc1ccc(-c2nn(C3CCC(O)CC3)c3ncnc(N)c23)cc1 [Example 29, N-(4-(4-amino-1-((1R,4R)-4-hydroxycyclohexyl)-1H-pyrazolo[3,4-d]pyrimidin-3-yl)benzyl)-5-fluoro-2-methoxybenzamide], the IC50 [1] was ≤ 10 nM, the IC50 [2] was 100 to 1000 nM and the IC50 [3] was ≤ 25 nM.
For COc1ccc(F)cc1C(=O)NCc1ccc(-c2nc(C3CCCC(O)C3)n3ccnc(N)c23)cc1 (single isomer, unassigned) [Example 22, N-(4-(8-amino-3-(3-hydroxycyclohexanyl)imidazo[1,5-a]pyrazin-1-yl)benzyl)-5-fluoro-2-methoxybenzamide], the IC50 [1] was ≤ 10 nM, the IC50 [2] was 100 to 1000 nM and the IC50 [3] was ≤ 25 nM.
With COc1ccc(F)cc1C(=O)NCc1ccc(-c2nn(C3CCCC(O)C3)c3ncnc(N)c23)cc1 (stereo not drawn) [Example 4] the IC50 [1] was ≤ 10 nM, the IC50 [2] was 100 to 1000 nM and the IC50 [3] was 25 to 50 nM.
